The nature of data set [1]: Compound was evaluated for binding affinity towards L-arginine decarboxylase (ADC) from Escherichia coli in UV time dependent assay.
Data set [2] can be described thus: Half life was reported. The data set is classed as ADME.
The subject of data set [3] is Escherichia coli. Kind of data set: Compound was evaluated for inhibition of L-arginine decarboxylase (ADC) from Escherichia coli in UV time dependent assay.
Data set [4] relates to Escherichia coli. Kind of data set: Rate of inactivation against L-arginine decarboxylase (ADC) from Escherichia coli was determined in UV time dependent assay.
For data set [5], the system named is bacterium cadaveris. Kind of data set: Rate of inactivation against L-lysine decarboxylase (LDC) from Bacterium cadaveris was determined in UV time dependent assay.
Data set [6] deals with bacterium cadaveris. Kind of data set: Compound was evaluated for inhibition L-lysine decarboxylase (LDC) from Bacterium cadaveris in UV time dependent assay.
A short description of data set [7]: Compound was evaluated for binding affinity against L-lysine decarboxylase (LDC) from Bacterium cadaveris in UV time dependent assay.

The values below come from ChEMBL document CHEMBL1129701, “-Vinyllysine and -vinylarginine are time-dependent inhibitors of their cognate decarboxylases” (Bioorg Med Chem Lett, 1996).

Molecules are shown by their SMILES.

For orientation: half-life means the time needed for the level to fall by half in the phase considered. Higher therefore signals slow decline. By Km is commonly meant the substrate concentration at which the rate is half of its maximum.

Take `C=C[C@](N)(CCCNC(=N)N)C(=O)O` (racemic): the Ki in data set [1] was determined as 1800 µM. Also, in data set [2], the half-life came out at 19 min. In addition, the Km in data set [3] amounted to 180 µM. The compound also registered a K inact in data set [4] of 0.036 min⁻¹.
`C=C[C@](N)(CCCCN)C(=O)O` (racemic) had a K inact in data set [5] of 0.02 min⁻¹. Further, the Km in data set [6] stood at 640 µM. In data set [2], this compound returned a half-life of 35 min. The compound further returned a Ki in data set [7] of 500 µM.
